Test results: US8759315B2, “Methods for rejuvenating” (Viacell, LLC, priority 2003, dated 2014)

Key:
[1] = system: Whole blood; assay: Rejuvenation of stored whole blood, DPG assay; type: cell-based
Experimental: (§1) The DPG assay was as follows: • To 2 mL Tris buffer with EDTA, was added 0.05 ml ATP 40 mM plus NADH 9.6 mM; 0.04 ml PGM (Sigma kit 665PA, Sigma, Inc. St. Louis, Mo.) and 0.1 ml RBC. The reaction mixture was allowed to equilibrate for five minutes at room temperature and the absorption at 339 nm wavelength was recorded. Next was added 0.02 ml PGM and 0.02 ml glycolate-2-phosphate. The reaction was allowed to proceed for 25 minutes and the absorption at 339 nm wavelength was recorded. The packed cell DPG equals (μmol/ml)×100 divided by the hematocrit.
An experiment was devised to determine whether the DPG levels could be brought back to approximate initial levels, that is, whether the RBC could be rejuvenated. Whole blood with heparin as anticoagulant was held at room temperature for 6 days, at which time DPG levels were undetectable. D-ribose at 10 mM was added and the blood was incubated at 37° C. for thirty minutes. […] The incubation time will be extended to determine whether the DPG levels can be further increased.

[2] = system: RBC; assay: Oxygen dissociation curve (P50) of stored and rejuvenated blood; type: cell-based; conditions: six-day CPD sample rejuvenated as for Example 3A (10 mM D-ribose, 37° C., thirty minutes)
Description: When the percent saturation of oxygen in blood is plotted against the partial pressure of oxygen (mmHg), the resulting curve is shown in FIG. 2. A shift to the right occurs when DPG is increased or pH is decreased. Consistent with the DPG experiments, the oxygen tension giving 50% saturation (P50) after six days storage in CPD was 43 mmHg. When this sample was rejuvenated as for Example 3A above, the P50 was 18.2 mmHg.

[3] = system: RBC; assay: Rejuvenation with D-ribose and phosphoenolpyruvate, DPG assay; type: cell-based; conditions: six days at room temperature, then 15 mM D-ribose, 10 mM to 100 mM PEP or both, 37°, 30 minutes; day 0 about 2 μmol/ml (FIG. 3)
Experimental: as §1
The rejuvenation experiment of Example 4 was repeated adding the high energy glycolysis intermediate phosphoenolpyruvate (PEP). Samples were held at for six days at room temperature until DPG levels were barely detectable. At that point, 15 mM D-ribose, 10 mM to 100 mM PEP or both were added and the blood incubated at 37° for 30 minutes. […] Adding PEP gave some benefit, raising the DPG levels to nearly 1 μmol/ml. Ribose also raised levels to about 1 μmol/ml. The effect of ribose plus PEP was additive: levels exceeded 1.5 μmol/ml, nearly the levels on day 0.

[4] = system: RBC; conditions: 42 days of storage at 4° C.; D-ribose: 15mM D-ribose and 10 mM phosphate added to CPD; cited from earlier work

SMILES | DPG after rejuvenation, as part of the usual initial value ([1]; whole blood with heparin held 6 days at room temperature (DPG undetectable), 10 mM D-ribose, 37° C., thirty minutes) | oxygen tension giving 50% saturation (P50) [2] [mmHg] | DPG levels after rejuvenation [3] | 2,3 DPG level maintained, of its initial level [4] | effect on rejuvenation ([1]; ribose reduced to one mM or increased to 100 mM, inosine substituted for ribose)
O=C[C@H](O)[C@H](O)[C@H](O)CO [D-ribose] | about one-third | 18.2 | about 1 μmol/ml | about 50% | –
OC[C@H]1O[C@@H](n2cnc3c(O)ncnc32)[C@H](O)[C@@H]1O [inosine] | – | – | – | – | equally beneficial effects on rejuvenation
C=C(OP(=O)(O)O)C(=O)O [PEP, phosphoenolpyruvate] | – | – | about 1 μmol/ml | – | –
